In ChEMBL document CHEMBL1201862, “PubChem BioAssay data set” (2004):
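These data come from cells grown in 96-well plates and exposed to compound for 48 hours at five concentrations. Here, GI50 denotes the concentration required for 50% inhibition of growth.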 Active and inactive are the calls of the source. Cut-off read from the data, not from the text of the source: active = GI50 up to about 1.1 µM and inactive = higher.

What was measured:
Assay in all cases: NCI tumour cell line growth inhibition, 48 h
A498 = test system: A498
HCT-15 = test system: HCT-15
HT-29 = test system: HT-29
KM12 = test system: KM12
NCI-H226 = test system: NCI-H226
OVCAR-3 = test system: OVCAR-3
OVCAR-8 = test system: OVCAR-8
SK-MEL-2 = test system: SK-MEL-2
SK-OV-3 = test system: SK-OV-3
SN12C = test system: SN12C
UACC-257 = test system: UACC-257
UO-31 = test system: UO-31
HOP-92 = test system: HOP-92
SW-620 = test system: SW-620
DU-145 = test system: DU-145
MDA-MB-231 = test system: MDA-MB-231
MDA-MB-435 = test system: MDA-MB-435
NCI/ADR-RES = test system: NCI/ADR-RES
PC-3 = test system: PC-3

Row | Compound | GI50 (A498) | GI50 (HCT-15) | GI50 (HT-29) | GI50 (KM12) | GI50 (NCI-H226) | GI50 (OVCAR-3) | GI50 (OVCAR-8) | GI50 (SK-MEL-2) | GI50 (SK-OV-3) | GI50 (SN12C) | GI50 (UACC-257) | GI50 (UO-31) | GI50 (HOP-92) | GI50 (SW-620) | GI50 (DU-145) | GI50 (MDA-MB-231) | GI50 (MDA-MB-435) | GI50 (NCI/ADR-RES) | GI50 (PC-3)
1 | O=C(CSc1nnc(Cc2ccccc2)o1)Nc1ccccc1 | > 100 µM (inactive) | > 100 µM | > 100 µM (inactive) | > 100 µM (inactive) | > 100 µM (inactive) | > 100 µM (inactive) | > 100 µM (inactive) | > 100 µM (inactive) | > 100 µM (inactive) | > 100 µM (inactive) | > 100 µM (inactive) | > 100 µM (inactive) |  |  |  |  |  |  | 
2 | O=C1Cc2ccccc2CCc2ccccc21 | > 100 µM (inactive) | > 100 µM | > 100 µM (inactive) | > 100 µM (inactive) | > 100 µM (inactive) | > 100 µM (inactive) | > 100 µM (inactive) | 64.1 µM (inactive) | > 100 µM (inactive) | > 100 µM (inactive) | > 100 µM (inactive) | 45.4 µM (inactive) | 35.6 µM (inactive) | > 100 µM (inactive) |  |  |  |  | 
3 | CC1=NN(c2ccccc2)C(=O)/C1=C\c1ccc([N+](=O)[O-])cc1 | 11.4 µM (inactive) | 29.6 µM | 28.3 µM (inactive) | 26.4 µM (inactive) |  |  | 31.2 µM (inactive) | 21.9 µM (inactive) | 24.1 µM (inactive) | 32.1 µM (inactive) | 28.7 µM (inactive) | 32.3 µM (inactive) |  | 30.3 µM (inactive) |  |  |  |  | 
4 | CCOC(=O)C12C3CCC1C2C(=O)C3 (centres undefined) |  | > 100 µM | > 100 µM (inactive) | > 100 µM (inactive) | > 100 µM (inactive) | > 100 µM (inactive) | > 100 µM (inactive) | > 100 µM (inactive) | > 100 µM (inactive) | > 100 µM (inactive) | > 100 µM (inactive) | > 100 µM (inactive) |  | > 100 µM (inactive) | > 100 µM (inactive) | > 100 µM (inactive) | > 100 µM (inactive) | > 100 µM (inactive) | > 100 µM (inactive)
5 | C=C1CCC2(C(C)=O)COC1(C)O2 (centres undefined) |  | > 100 µM | > 100 µM (inactive) | > 100 µM (inactive) | > 100 µM (inactive) | > 100 µM (inactive) | > 100 µM (inactive) |  | > 100 µM (inactive) | > 100 µM (inactive) | > 100 µM (inactive) | > 100 µM (inactive) |  | > 100 µM (inactive) |  |  |  |  | 
6 | O=C(c1ccccc1)c1ccc(OCCOc2ccc(Nc3ccccc3)cc2)cc1 | 27.4 µM (inactive) | 74.6 µM |  | > 100 µM (inactive) | 33.6 µM (inactive) | 37.2 µM (inactive) | 32.4 µM (inactive) | 38.3 µM (inactive) | 22.9 µM (inactive) | 42.3 µM (inactive) | 65.8 µM (inactive) | > 100 µM (inactive) | 27.3 µM (inactive) | > 100 µM (inactive) |  |  |  |  | 
7 | O=C1Oc2ccccc2C(=O)/C1=C/N1C(=O)N/C(=C\c2cccc(O)c2)C1=O |  | 61.9 µM | > 100 µM (inactive) | 62.5 µM (inactive) | > 100 µM (inactive) | > 100 µM (inactive) | 33.2 µM (inactive) | 46.2 µM (inactive) | > 100 µM (inactive) | 69.5 µM (inactive) | > 100 µM (inactive) | 29.5 µM (inactive) | > 100 µM (inactive) | 83.4 µM (inactive) | 72.9 µM (inactive) | 62.4 µM (inactive) | 54.2 µM (inactive) | > 100 µM (inactive) | 54.3 µM (inactive)
8 | O=C1c2ccccc2C(=O)C12CCc1ccccc12 |  | > 100 µM | > 100 µM (inactive) |  |  | > 100 µM (inactive) | > 100 µM (inactive) |  | > 100 µM (inactive) | > 100 µM (inactive) |  | > 100 µM (inactive) | > 100 µM (inactive) | > 100 µM (inactive) |  |  |  |  | 
9 | NC(=O)CCC(NC(=O)Cc1ccccc1)C(=O)O (centres undefined) | > 2470 µM (inactive) | > 2470 µM | > 2470 µM (inactive) | > 2470 µM (inactive) |  | > 2470 µM (inactive) | > 2470 µM (inactive) | > 2470 µM (inactive) | > 2470 µM (inactive) | > 2470 µM (inactive) |  | 667 µM (inactive) | 1060 µM (inactive) | > 2470 µM (inactive) |  |  |  |  | 
10 | CCOC(=O)C1=C(O)C(=O)c2c(OC)ccc(OC)c2C1=O | > 100 µM (inactive) | > 100 µM | > 100 µM (inactive) | > 100 µM (inactive) | > 100 µM (inactive) | > 100 µM (inactive) | > 100 µM (inactive) | > 100 µM (inactive) | > 100 µM (inactive) | > 100 µM (inactive) | > 100 µM (inactive) | > 100 µM (inactive) | > 100 µM (inactive) | > 100 µM (inactive) |  |  |  |  | 
11 | CCOC(=O)NC(=O)c1cn(-c2ccc(CCOC(=O)CCCCCCCCC(=O)OCCc3ccc(-n4cc(C(=O)NC(=O)OCC)c(=O)[nH]c4=O)cc3)cc2)c(=O)[nH]c1=O |  | > 100 µM | > 100 µM (inactive) | > 100 µM (inactive) | > 100 µM (inactive) | > 100 µM (inactive) | > 100 µM (inactive) | > 100 µM (inactive) | > 100 µM (inactive) | > 100 µM (inactive) | > 100 µM (inactive) | > 100 µM (inactive) | 26 µM (inactive) | > 100 µM (inactive) |  |  |  |  | 
